The source of these data is patent US8666671B2, “Method for determining drug-molecular combinations that modulate and enhance the therapeutic safety and efficacy of biological or pharmaceutical drugs” (Enhanced Pharmaceuticals, Inc., priority 2007, dated 2014).

The assay concerns rats. Description: In vivo response of rats (dP/dt, contractility of the heart) to Lopressor, dobutamine and Dob/Met. From the text: FIG. 2 presents empirical data of the in vivo response of rats to Lopressor® (the brand name for metoprolol used by Novartis Pharmaceuticals Corporation), dobutamine and the dobutamine/metoprolol specific combination ratio (Dob/Met);
The Lopressor® acts much like an inverse agonist or negative antagonist in that it produces a steep decrease in the animals' dP/dt, which is a measure of the contractility of the heart. Although in this experimental context metoprolol may be inhibiting the sympathetic tone of these animals due to the production of their endogenous catacholamines, it functions much like an inverse agonist or negative antagonist. The data is plotted as the dP/dt response versus the dosages of the drugs or combination (dobutamine with metoprolol, Dob/Met). The average beginning baseline response was about 7400 mmHg/sec. From this baseline, the Lopressor® decreased dP/dt to below 2000. For the agonist, dobutamine, the average response for the rats labeled 8-11 are plotted with the unfilled circles. At doses below about 50 micrograms/kg/min, the responses rise to a peak value of about 11000 mmHg/sec, but at further dosages these values decline to below 4000 mmHg/sec.
Examining the responses of metoprolol (Lopressor®) and dobutamine alone, one might think that in combination they would produce a more profound decline in the response to well below 2000 mmHg/sec. […] However, this method can predict these behaviors and is useful in determining other specific ratio combinations that produce a range of desirable responses in physiological systems.

Take `COCCc1ccc(OCC(O)CNC(C)C)cc1` (stereo not drawn) [Lopressor, metoprolol]: the “dP/dt (contractility of the heart), decreased value” (rats, in vivo, average beginning baseline about 7400 mmHg/sec, four individual rats) was “below 2000 mmHg/sec”.

Regarding `CC(CCc1ccc(O)cc1)NCCc1ccc(O)c(O)c1` (stereo not drawn) [dobutamine], the “dP/dt at further dosages (decline after peak)” value (rats 8-11, average response, doses above about 50 micrograms/kg/min) is reported as “below 4000 mmHg/sec”. The dP/dt peak value result (rats 8-11, average response, doses below about 50 micrograms/kg/min, baseline about 7400 mmHg/sec) is recorded as “about 11000 mmHg/sec”.
